Assay results published in ChEMBL document CHEMBL4613324, “Design, Synthesis, and Evaluation of a Series of Novel Super Long-Acting DPP-4 Inhibitors for the Treatment of Type 2 Diabetes” (J Med Chem, 2020).
Active and inactive are the calls of the source. The calls are words filed in the database; no cut-off is given here.

What was measured:
Cytochrome P450 3A5 [1] = biological target: T1, Cytochrome P450 3A5 (Homo sapiens, UniProt P20815); experiment: Inhibition of recombinant human CYP3A5 using testosterone as substrate; format: ADME
CYP2C8 = CYP2C8 (Homo sapiens, UniProt P10632); experiment: Stability assessed as recombinant human CYP2C8 mediated compound metabolism by measuring parent compound remaining after 30 mins relative to control; format: ADME; settings: read-out: Stability
[2] = biological target: Voltage-gated inwardly rectifying potassium channel KCNH2 (Homo sapiens, UniProt Q12809); experiment: Inhibition of human ERG by manual whole-cell patch-clamp assay
Mus musculus [3] = experiment: Antidiabetic activity in ob/ob mouse assessed as reduction in random blood glucose levels at 1 to 10 mg/kg, po dosed once every three days for 31 days; format: functional, organism-based
Rhesus monkey [4] = experiment: Ex-vivo inhibition of DPP4 in plasma isolated from rhesus monkey treated at 10 mg/kg, ig after 2 weeks by fluorescence based assay relative to control; format: functional; settings: Macaca mulatta, po, 336 h
[5] = Cmax in ICR mouse at 2 mg/kg, po measured after 0.0833 to 120 hrs by LC-MS-MS analysis; format: ADME, organism-based; set-up: dose 2 mg/kg, route oral; settings: in vivo
Cytochrome P450 2E1 = Cytochrome P450 2E1 (Homo sapiens, UniProt P05181); experiment: Inhibition of recombinant human CYP2E1; format: ADME
Cytochrome P450 1A2 [6] = biological target: T2, Cytochrome P450 1A2 (Homo sapiens, UniProt P05177); experiment: (§1) Inhibition of recombinant human CYP1A2; format: ADME
T2 sequence (P05177 whole entry): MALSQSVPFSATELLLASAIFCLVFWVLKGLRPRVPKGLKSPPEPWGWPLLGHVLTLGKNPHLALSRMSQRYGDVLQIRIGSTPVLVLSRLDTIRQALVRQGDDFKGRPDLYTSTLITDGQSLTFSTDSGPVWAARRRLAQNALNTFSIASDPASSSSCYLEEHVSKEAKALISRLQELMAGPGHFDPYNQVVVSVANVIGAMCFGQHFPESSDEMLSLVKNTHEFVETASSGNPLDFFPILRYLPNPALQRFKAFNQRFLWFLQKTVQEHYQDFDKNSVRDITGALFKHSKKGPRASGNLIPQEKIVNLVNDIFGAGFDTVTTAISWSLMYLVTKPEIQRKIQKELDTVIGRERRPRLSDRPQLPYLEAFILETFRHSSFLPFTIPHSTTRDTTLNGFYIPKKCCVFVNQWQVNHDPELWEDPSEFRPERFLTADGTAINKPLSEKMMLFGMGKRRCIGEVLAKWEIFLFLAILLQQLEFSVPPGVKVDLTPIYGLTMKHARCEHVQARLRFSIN

Mus musculus [7] = experiment: Antidiabetic activity in ob/ob mouse assessed as reduction in decrease in HbA1c level at 1 mg/kg, po dosed once every three days for 31 day relative to control; format: functional; set-up: scale not given: the % may be the effect or the level left
[8] = AUC in T2D patient; format: ADME; settings: human, in vivo
Cytochrome P450 2B6 = biological target: T3, Cytochrome P450 2B6 (Homo sapiens, UniProt P20813); experiment: Inhibition of recombinant human CYP2B6; format: ADME
T3 sequence (P20813 whole entry): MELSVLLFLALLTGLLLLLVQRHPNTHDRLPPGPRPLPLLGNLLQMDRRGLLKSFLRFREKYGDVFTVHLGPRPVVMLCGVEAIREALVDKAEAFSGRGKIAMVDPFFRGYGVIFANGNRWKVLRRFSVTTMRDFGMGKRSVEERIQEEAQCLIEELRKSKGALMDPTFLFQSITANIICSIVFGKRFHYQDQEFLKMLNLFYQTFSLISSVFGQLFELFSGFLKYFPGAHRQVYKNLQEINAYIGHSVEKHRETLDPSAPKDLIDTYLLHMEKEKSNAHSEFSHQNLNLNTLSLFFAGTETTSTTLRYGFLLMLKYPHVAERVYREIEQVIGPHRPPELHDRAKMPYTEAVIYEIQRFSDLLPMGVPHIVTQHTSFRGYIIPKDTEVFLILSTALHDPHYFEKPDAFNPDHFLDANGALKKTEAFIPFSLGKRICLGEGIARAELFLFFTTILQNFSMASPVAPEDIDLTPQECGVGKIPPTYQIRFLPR

Cytochrome P450 3A4 [9] = biological target: T4, Cytochrome P450 3A4 (Homo sapiens, UniProt P08684); experiment: (§2) Inhibition of recombinant human CYP3A4 using midazolam as substrate; format: ADME
Cytochrome P450 1A2 [10] = biological target: T2, Cytochrome P450 1A2; experiment: as §1; format: ADME; remark: listed apart in the source
Cytochrome P450 2C19 = Cytochrome P450 2C19 (Homo sapiens, UniProt P33261); experiment: Inhibition of recombinant human CYP2C19; format: ADME
CYP2C19 = CYP2C19 (Homo sapiens, UniProt P33261); experiment: Stability assessed as recombinant human CYP2C19 mediated compound metabolism by measuring parent compound remaining after 30 mins relative to control; format: ADME; settings: read-out: Stability
CYP1A2 = CYP1A2 (Homo sapiens, UniProt P05177); experiment: Stability assessed as recombinant human CYP1A2 mediated compound metabolism by measuring parent compound remaining after 30 mins relative to control; format: ADME; settings: read-out: Stability
Cytochrome P450 3A5 [11] = biological target: T1, Cytochrome P450 3A5; experiment: Inhibition of recombinant human CYP3A5 using midazolam as substrate; format: ADME
[12] = Volume of distribution at steady state in ICR mouse at 0.5 mg/kg, iv measured after 0.0833 to 120 hrs by LC-MS-MS analysis; format: ADME, organism-based; settings: in vivo, read-out: Vdss
Rhesus monkey [13] = experiment: Ex-vivo inhibition of DPP4 in plasma isolated from rhesus monkey treated at 10 mg/kg, ig after 12 days by fluorescence based assay relative to control; format: functional; settings: Macaca mulatta, po, 288 h
Cytochrome P450 3A4 [14] = biological target: T4, Cytochrome P450 3A4; experiment: as §2; format: ADME; remark: listed apart in the source
CYP2A6 = CYP2A6 (Homo sapiens, UniProt P11509); experiment: Stability assessed as recombinant human CYP2A6 mediated compound metabolism by measuring parent compound remaining after 30 mins relative to control; format: ADME; settings: read-out: Stability
Dipeptidyl peptidase 9 = Dipeptidyl peptidase 9 (Homo sapiens, UniProt Q86TI2); experiment: Inhibition of human recombinant DPP9 incubated for 15 mins using Gly-Pro-7-AMC substrate
Cytochrome P450 2D6 = Cytochrome P450 2D6 (Homo sapiens, UniProt P10635); experiment: Inhibition of recombinant human CYP2D6; format: ADME
Cytochrome P450 3A4 [15] = biological target: T4, Cytochrome P450 3A4; experiment: Inhibition of recombinant human CYP3A4 using testosterone as substrate; format: ADME
[16] = Oral bioavailability in ICR mouse at 2 mg/kg measured after 0.0833 to 120 hrs by LC-MS-MS analysis; format: ADME, organism-based; settings: in vivo
CYP2E1 = CYP2E1 (Homo sapiens, UniProt P05181); experiment: Stability assessed as recombinant human CYP2E1 mediated compound metabolism by measuring parent compound remaining after 30 mins relative to control; format: ADME; settings: read-out: Stability
Cytochrome P450 2C9 = Cytochrome P450 2C9 (Homo sapiens, UniProt P11712); experiment: Inhibition of recombinant human CYP2C9; format: ADME
Mus musculus [17] = experiment: Antidiabetic activity in ob/ob mouse assessed as reduction in decrease in HbA1c level at 3 mg/kg, po dosed once every three days for 31 day relative to control; format: functional; set-up: scale not given: the % may be the effect or the level left
[18] = biological target: Dipeptidyl peptidase 4 (Mus musculus) (UniProt P28843); experiment: Ex-vivo inhibition of DPP4 in plasma isolated from ob/ob mouse treated at 3 to 30 mg/kg, po measured after 2 to 72 hrs by fluorescence based assay; format: functional, organism-based
Mus musculus [19] = experiment: Antidiabetic activity in ob/ob mouse assessed as reduction in decrease in HbA1c level at 3 to 10 mg/kg, po dosed once every three days for 31 day; format: functional, organism-based

T4 sequence (P08684 whole entry): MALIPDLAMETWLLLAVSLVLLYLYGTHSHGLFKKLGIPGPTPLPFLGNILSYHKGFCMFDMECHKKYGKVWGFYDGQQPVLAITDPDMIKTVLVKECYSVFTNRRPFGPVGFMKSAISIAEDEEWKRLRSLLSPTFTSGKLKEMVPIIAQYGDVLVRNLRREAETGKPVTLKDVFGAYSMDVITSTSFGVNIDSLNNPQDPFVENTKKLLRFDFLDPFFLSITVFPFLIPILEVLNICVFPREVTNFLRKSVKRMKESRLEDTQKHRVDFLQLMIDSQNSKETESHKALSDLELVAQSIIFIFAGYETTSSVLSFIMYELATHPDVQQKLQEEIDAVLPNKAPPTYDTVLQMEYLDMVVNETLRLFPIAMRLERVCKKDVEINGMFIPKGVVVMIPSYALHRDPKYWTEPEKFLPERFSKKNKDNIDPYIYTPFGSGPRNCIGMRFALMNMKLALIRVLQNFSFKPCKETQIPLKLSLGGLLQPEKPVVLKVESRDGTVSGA
T1 sequence (P20815 whole entry): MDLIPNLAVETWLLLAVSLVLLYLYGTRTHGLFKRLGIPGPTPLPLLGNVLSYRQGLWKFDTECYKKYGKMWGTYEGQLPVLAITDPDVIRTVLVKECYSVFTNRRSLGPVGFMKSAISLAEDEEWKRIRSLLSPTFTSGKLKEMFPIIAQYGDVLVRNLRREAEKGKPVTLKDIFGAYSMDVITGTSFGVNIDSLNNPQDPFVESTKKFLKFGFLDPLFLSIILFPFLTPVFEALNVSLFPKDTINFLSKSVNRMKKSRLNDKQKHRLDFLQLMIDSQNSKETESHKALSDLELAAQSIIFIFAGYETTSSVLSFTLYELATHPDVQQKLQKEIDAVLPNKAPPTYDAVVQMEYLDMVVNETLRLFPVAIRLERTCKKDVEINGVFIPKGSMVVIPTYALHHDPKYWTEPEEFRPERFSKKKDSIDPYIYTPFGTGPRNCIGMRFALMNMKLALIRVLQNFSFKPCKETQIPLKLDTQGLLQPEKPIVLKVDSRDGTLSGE
Cytochrome P450 2D6, sequence (P10635 whole entry): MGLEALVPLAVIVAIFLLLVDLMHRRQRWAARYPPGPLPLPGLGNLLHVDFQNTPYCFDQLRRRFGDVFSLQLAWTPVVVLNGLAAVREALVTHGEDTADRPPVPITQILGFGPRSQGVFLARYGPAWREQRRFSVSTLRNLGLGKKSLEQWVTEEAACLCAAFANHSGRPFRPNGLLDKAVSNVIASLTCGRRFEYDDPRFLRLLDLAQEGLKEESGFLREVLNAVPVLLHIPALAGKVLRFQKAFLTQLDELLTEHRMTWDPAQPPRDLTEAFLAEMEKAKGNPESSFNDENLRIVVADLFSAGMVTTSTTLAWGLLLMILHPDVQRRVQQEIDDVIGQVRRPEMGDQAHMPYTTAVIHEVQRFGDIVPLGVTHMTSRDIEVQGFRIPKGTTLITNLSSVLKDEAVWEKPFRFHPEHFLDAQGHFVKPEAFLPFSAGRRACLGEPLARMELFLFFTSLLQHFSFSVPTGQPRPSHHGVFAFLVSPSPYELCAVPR
Cytochrome P450 2C19, sequence (P33261 whole entry): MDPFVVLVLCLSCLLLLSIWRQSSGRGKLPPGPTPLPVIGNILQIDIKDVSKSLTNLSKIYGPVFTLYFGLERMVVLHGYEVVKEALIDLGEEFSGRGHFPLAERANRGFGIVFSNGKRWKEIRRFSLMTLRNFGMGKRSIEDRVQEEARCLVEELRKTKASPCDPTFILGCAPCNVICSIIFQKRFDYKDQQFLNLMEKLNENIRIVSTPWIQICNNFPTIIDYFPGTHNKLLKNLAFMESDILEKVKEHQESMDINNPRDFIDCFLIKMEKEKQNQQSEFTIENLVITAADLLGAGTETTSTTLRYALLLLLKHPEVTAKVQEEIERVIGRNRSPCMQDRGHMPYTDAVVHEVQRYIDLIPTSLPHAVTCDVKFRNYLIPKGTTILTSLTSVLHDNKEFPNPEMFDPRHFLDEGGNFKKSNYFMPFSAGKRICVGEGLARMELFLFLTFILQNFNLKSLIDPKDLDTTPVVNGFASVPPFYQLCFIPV
CYP2C19, sequence (P33261 whole entry): as above
Voltage-gated inwardly rectifying potassium channel KCNH2, sequence (Q12809 whole entry): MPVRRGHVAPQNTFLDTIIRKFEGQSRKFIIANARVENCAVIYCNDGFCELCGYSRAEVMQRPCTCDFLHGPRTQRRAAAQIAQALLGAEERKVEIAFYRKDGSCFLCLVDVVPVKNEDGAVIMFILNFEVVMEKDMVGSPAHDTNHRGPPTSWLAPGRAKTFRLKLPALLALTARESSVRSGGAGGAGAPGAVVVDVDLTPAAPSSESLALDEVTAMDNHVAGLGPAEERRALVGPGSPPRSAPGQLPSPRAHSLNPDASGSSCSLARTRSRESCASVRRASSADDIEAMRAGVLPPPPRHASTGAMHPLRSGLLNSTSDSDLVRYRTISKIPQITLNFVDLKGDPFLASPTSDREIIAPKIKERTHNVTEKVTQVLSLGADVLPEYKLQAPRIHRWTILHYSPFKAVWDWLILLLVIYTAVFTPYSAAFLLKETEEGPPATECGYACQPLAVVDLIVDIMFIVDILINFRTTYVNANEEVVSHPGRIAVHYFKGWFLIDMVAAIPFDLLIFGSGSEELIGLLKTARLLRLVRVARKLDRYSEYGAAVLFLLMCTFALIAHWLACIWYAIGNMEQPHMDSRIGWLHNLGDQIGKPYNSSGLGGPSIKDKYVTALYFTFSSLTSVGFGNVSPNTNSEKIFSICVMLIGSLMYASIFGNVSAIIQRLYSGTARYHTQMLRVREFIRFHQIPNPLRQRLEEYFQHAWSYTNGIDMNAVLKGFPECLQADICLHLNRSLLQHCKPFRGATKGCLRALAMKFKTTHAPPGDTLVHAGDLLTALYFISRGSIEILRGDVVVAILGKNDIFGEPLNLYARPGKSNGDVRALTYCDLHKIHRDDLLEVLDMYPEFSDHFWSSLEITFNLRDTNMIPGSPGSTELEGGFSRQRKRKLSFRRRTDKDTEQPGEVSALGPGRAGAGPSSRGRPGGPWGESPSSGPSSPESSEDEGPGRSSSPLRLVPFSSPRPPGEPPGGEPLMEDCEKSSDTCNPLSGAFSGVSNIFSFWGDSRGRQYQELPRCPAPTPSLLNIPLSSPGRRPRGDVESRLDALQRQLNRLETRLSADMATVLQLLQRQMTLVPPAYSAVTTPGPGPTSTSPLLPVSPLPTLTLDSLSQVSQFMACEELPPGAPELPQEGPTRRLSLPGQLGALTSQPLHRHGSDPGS
CYP2C8, sequence (P10632 whole entry): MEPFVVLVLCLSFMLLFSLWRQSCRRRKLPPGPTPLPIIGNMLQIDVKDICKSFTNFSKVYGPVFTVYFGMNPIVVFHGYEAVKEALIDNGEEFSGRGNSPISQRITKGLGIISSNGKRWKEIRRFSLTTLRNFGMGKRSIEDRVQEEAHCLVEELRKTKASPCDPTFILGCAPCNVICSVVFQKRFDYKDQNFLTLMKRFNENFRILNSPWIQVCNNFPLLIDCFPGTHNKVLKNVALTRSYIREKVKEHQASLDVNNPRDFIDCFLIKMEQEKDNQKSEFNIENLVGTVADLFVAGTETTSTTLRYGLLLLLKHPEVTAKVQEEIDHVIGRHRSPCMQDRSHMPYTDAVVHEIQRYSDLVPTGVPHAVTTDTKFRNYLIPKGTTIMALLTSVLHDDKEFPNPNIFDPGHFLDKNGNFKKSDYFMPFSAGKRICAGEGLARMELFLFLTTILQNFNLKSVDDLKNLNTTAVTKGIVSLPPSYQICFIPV
Dipeptidyl peptidase 9, sequence (Q86TI2 whole entry): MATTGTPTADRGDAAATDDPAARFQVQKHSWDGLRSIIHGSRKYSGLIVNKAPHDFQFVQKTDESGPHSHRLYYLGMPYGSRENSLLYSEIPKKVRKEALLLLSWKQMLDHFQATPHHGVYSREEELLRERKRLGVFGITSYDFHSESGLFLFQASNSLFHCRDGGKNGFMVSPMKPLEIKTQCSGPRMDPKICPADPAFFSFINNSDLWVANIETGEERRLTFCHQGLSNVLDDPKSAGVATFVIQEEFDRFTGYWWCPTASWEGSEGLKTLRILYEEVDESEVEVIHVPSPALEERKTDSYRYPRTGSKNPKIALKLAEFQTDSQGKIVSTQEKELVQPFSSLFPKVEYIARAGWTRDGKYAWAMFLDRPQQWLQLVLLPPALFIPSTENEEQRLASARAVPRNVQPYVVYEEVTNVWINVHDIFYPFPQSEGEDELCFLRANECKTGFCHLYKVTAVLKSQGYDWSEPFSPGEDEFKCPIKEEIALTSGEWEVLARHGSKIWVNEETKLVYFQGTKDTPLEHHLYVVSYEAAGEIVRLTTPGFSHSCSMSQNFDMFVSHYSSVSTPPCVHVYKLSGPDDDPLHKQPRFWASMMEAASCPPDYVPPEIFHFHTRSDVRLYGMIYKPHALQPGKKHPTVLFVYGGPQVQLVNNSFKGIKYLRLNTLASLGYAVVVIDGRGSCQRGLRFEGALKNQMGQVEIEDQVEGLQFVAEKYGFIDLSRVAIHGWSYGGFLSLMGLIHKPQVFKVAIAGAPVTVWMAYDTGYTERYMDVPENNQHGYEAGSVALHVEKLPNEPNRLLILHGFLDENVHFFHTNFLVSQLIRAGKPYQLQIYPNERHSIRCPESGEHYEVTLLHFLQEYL

With `CS(=O)(=O)n1cc2c(n1)CN([C@@H]1C[C@H](N)[C@@H](c3cc(F)ccc3F)O[C@@H]1C(F)(F)F)C2` [COFROGLIPTIN] the IC50 (Cytochrome P450 3A5 [1]) was greater than 100 µM, the remaining at 0.5 h (CYP2C8) was greater than 95% and the IC50 [2] was greater than 30 µM. The Activity (Mus musculus [3]) was “Active”, the inhibition in vivo at 10 mg/kg (Rhesus monkey [4]) was 76.2% and the Cmax [5] was 352 ng/mL. It also gave an IC50 (Cytochrome P450 2E1) greater than 100 µM, an IC50 (Cytochrome P450 1A2 [6]) greater than 100 µM and an Activity (Mus musculus [7]) of 3.1%. The AUC [8] was 34900 ng·h/mL, the IC50 (Cytochrome P450 2B6) was greater than 100 µM and the IC50 (Cytochrome P450 3A4 [9]) was greater than 100 µM. It also gave an IC50 (Cytochrome P450 1A2 [10]) greater than 100 µM, an IC50 (Cytochrome P450 2C19) greater than 100 µM and a remaining at 0.5 h (CYP2C19) greater than 95%. For the same compound, the remaining at 0.5 h (CYP1A2) was greater than 95%, the IC50 (Cytochrome P450 3A5 [11]) was greater than 100 µM and the Vd [12] was 3.3 L/kg. For the same compound, the inhibition in vivo at 10 mg/kg (Rhesus monkey [13]) was greater than 80%, the IC50 (Cytochrome P450 3A4 [14]) was 45.8 µM and the remaining at 0.5 h (CYP2A6) was greater than 95%. It also gave an IC50 (Dipeptidyl peptidase 9) greater than 100 µM, an IC50 (Cytochrome P450 2D6) greater than 100 µM and an IC50 (Cytochrome P450 3A4 [15]) greater than 100 µM. It also gave a bioavailability [16] of 62.2%, a remaining at 0.5 h (CYP2E1) greater than 95% and an IC50 (Cytochrome P450 2C9) greater than 100 µM. For the same compound, the Activity (Mus musculus [17]) was 19.1%, the inhibition [18] was “Dose-dependent effect” and the Activity (Mus musculus [19]) was “Active”.
